Experimental data from patent publication US20240327488A1, “CONNEXIN-46 PEPTIDE MODULATOR” (UNIVERSIDAD DEL DESARROLLO, priority 2023, published 2024).

Assays:
Assay type in all cases: cell-based, human
HeLa Cx46-GFP cells = assay: Tumor sphere formation on non-adherent surface
From the text: (B) Tumor spheres growing is a technique used to determine the cancer stem cells capacity. Hela cells transfected with GFP for a monolayer of cells when they a seeded in a non-adherent surface, and moreover they died after 14 days in culture. However, Hela cells transfected with Cx46GFP do form tumor spheres which survive at last for 14 days. […] (D) graphical comparison between the size of tumor spheres at day 14 under control conditions (outer line) and treated with the peptide (inner line). Plot show the quantification of the tumor sphere size between time 0 and day 14, both under control condition (upper line) and with the peptide (lower line).
Mimetic peptides of the Cx46 domains that would interact with c-Src, Akt or PI3k were designed, synthesized and evaluated for their ability to inhibit the formation of tumor spheres in vitro in Hela cells overexpressing or not Cx46. Briefly, the experiments were done with the following protocols.
Cell line cultures: The HeLa cell line was grown in Dulbecco's Modified Eagle Medium (DMEM) supplemented with 10% fetal bovine serum (FBS) and 1% penicillin 10,000 U/mL, streptomycin sulfate […] (P/S) at 37° C., 5% CO2 and 95% humidity. Every 2 weeks the presence of mycoplasma was analyzed, by means of staining with DAPI. Infected cells were treated with BioMyc-1 (100×) for two weeks.
Cell Transfection: Cells were transfected using Lipofectamine 2000 (Invitrogen). For this HeLa cell cultures were grown to reach 60% confluence. Cells are washed with serum-free DMEM twice and finally exposed to OptiMem™ (Invitrogen) plus 1 μg cDNA. The cDNA for GFP-linked human Cx46 was purchased from Promega. The plasmid also has a resistance to G418, which is an antibiotic that serves for the selection of cells that stably express Cx46-GFP. Cx46 expression was monitored by Western blot and immunofluorescence analysis.
However, Hela cells transfected with Cx46-GFP form large tumor spheres that remain alive for at least 14 days (FIG. 2B; Annex 1). […]

[1] = tested on: Akt phosphorylation in S473; assay: Western blot of Akt phosphorylation at S473
Procedure: (A) Representative Western blot showing, the levels of phosphorylation at S473 (pAKT), total AKT (AKT) and loading control (actin). Different concentrations of TAT-Cx46-Src were tested, ranging between […]. (B) Plot showing the relative levels of pAKT with respect to total AKT at different concentrations of TAT-Cx46-Src. (n=3).
Western blots: Cells were washed three times with phosphate buffered saline
(PBS) pH: 7.4 and then lysed with RIPA buffer (150 mM NaCl, 20 mM Tris pH: 7.4; 0.5% Sodium Desoxycholate, 0.1% Sodium Dodecyl Sulfate (SDS), 1% Nonidet P-40 and a protease inhibitor cocktail tablet). Proteins were quantified using the Qubit™ protein Assay Kit in a Qubit™ Fluorometer following the manufacturer's instructions (ThermoFisher). Subsequently, Laemli buffer (4×) (62.5 mM Tris pH 6.8; 25% glycerol, 2% SDS, 0.01% bromophenol blue and 5% β-mercaptoethanol) was added to the cell lysate and was heated at 95° C. for 3 min, in a thermoblock. About 50 μg of proteins were loaded into each well of a 10% polyacrylamide gel under denaturing conditions (SDS-PAGE). Then the proteins were transferred to a polyvinylidene difluoride (PVDF) membrane by wet transfer for 2 h at 100 V in Tris-Glycine 20% methanol buffer. The membranes were blocked with 5% skimmed milk in Buffer Tris and 0.05% Tween 20 (T-TBS) for 1 h at room temperature under shaking. […]

[2] = tested on: Tumor spheres formed by Hela cells transfected with Cx46GFP; assay: Cell viability of tumor spheres (7-AAD uptake)
Procedure: Tumor spheres formed by Hela cells transfected with Cx46GFP were grown for 14 days. […] TAT-Cx46-Src was added every 3 days (every time that culture media was replaced). At day 14th, 10 mM 7-AAD was added to the extracellular media.

Question: What does the source list for “TAT-Cx46-Src: Mimetic peptide of the Cx46 404-410 C-terminal segment (MHQPPLP) fused with the cell-penetrating TAT peptide; blocks the Cx46/c-Src interaction (GRKKRRQRRRPQMHQPPLP)”?
Answer: decrease of the size of tumor spheres (HeLa Cx46-GFP cells; 100 μM, 10 days of treatment, HeLa Cx46-GFP cells): about 43%; tumor sphere size (HeLa Cx46-GFP cells; 100 mM added to the extracellular media every 3 days, Hela Cx46GFP, up to day 14 (FIG. 2C)): reduced tumor sphere size; inhibition of the cancer stem cells (CSC) functional phenotype (HeLa Cx46-GFP cells; Hela cells (FIGS. 2C and D)): strong inhibition; Akt phosphorylation levels in S473 ([1]; 100 μM, 24-h treatment, HeLa Cx46-GFP cells): strongly decreased; Akt phosphorylation in S473 (pAKT relative to total AKT) ([1]; concentrations ranging between 0-100 mM, n=3 (FIG. 3)): decreased Akt phosphorylation; uptake of 7-AAD dye ([2]; day 14, 10 mM 7-AAD in extracellular media, 100 mM peptide every 3 days, n=3): shown uptake of this Dye; death of cells in tumor spheres (cell viability studies) ([2]; treatment with 100 μM, HeLa Cx46-GFP tumor spheres): promotes the death of cells in the center of tumor spheres; cell death of Hela cells Cx46GFP ([2]; tumor spheres grown 14 days, 100 mM added every 3 days, n=3 (FIG. 4)): increase cell death
